Holding throughout (type): cell-based, human
Series [1] has as its system liver organoid. Nature of the series: Gluconeogenesis of liver organoid (glucose quantified in medium supernatant, Glucose-Glo Assay). Conditions: for gluconeogenesis of the liver organoid: glucose corrected by ATP, donor 9. On the procedure: Subsequently, the medium was replaced with a Gluconogenesis assay medium having the composition shown in Table 4 below (hereinafter sometimes referred to as a “GM medium”), and incubation was performed for 24 hours in an environment of 37° C., 1 atm, and a CO2 concentration of 5 v/v %. The supernatant of the medium after the incubation was collected, and glucose and urea included in the medium were quantified. The measurement results will be described later.
The glucose was measured according to a protocol of the manufacturer using a Glucose-Glo™ Assay (Promega, catalog number: J6022). […]
In addition, the liver organoid after the incubation were washed three times with Fasting Medium (hereinafter sometimes referred to as an “FM medium”) having the composition shown in Table 3, FM was added thereto at 500 μL/well, and incubation was performed for 18 hours in an environment of 37° C., 1 atm, and a CO2 concentration of 5 v/v %.
Subsequently, the medium was replaced with a Gluconogenesis assay medium having the composition shown in Table 4 (hereinafter sometimes referred to as a “GM medium”), and incubation was performed for 24 hours in an environment of 37° C., 1 atm, and a CO2 concentration of 5 v/v %. The supernatant of the medium after the incubation was collected, and glucose and urea included in the medium were quantified. The quantification of glucose and urea was performed in the same manner as in Experimental Example 1. The measurement results will be described later.
The medium of the liver organoid, which had been produced in the same manner as in Experimental Example 2 and expansion-cultured for 2 weeks, was replaced with a differentiation medium (hereinafter sometimes referred to as a “DM medium”) having the composition shown in Table 6 below at 500 μL/well, and incubated for 2 weeks in an environment of 37° C., 1 atm, and a CO2 concentration of 5 v/v %. The medium was replaced every 7 days.
Subsequently, gluconeogenesis, urea production, albumin production, and bile acid production of the liver organoid were evaluated in the same manner as in Experimental Example 2. The results of the amount of glucose produced and the amount of urea produced will be described later.

Series [2] deals with liver organoid. Nature of the series: Urea production of liver organoid (Quantichrom Urea Assay Kit). Conditions: metformin 1 mM or 10 mM added to MM, FM and GM medium; organoid cultured in DM medium.
Experimental: The urea was measured according to a protocol of the manufacturer using Quantichrom Urea Assay Kit (Bioassay Systems, catalog number: DIUR-100).
Series [3] has as its system gluconeogenesis-related genes, urea production-related genes and CYP genes in liver organoid. Nature of the series: Quantitative real-time PCR of liver organoids, A83-01 removed from differentiation medium. Conditions: liver organoids cultured in DM medium from which A83-01 had been removed, versus DM medium. From the text: A liver organoid was produced in the same manner as in Experimental Example 3, except that the transforming growth factor β receptor antagonist (A83-01) was removed from the differentiation medium (DM medium), and the expression of the gluconeogenesis-related genes, the urea production-related genes, and the CYP genes was examined by quantitative real-time PCR.
(§1) A total RNA was extracted from cells using Direct-zol RNA Kit micro (Zymo Research, catalog number: #R2063), and a reverse transcription reaction was carried out using a PrimeScript RT Master Mix (Takara Bio, catalog number: RR036A) to obtain a cDNA. Subsequently, quantitative real-time PCR was performed using LightCycler 480 System (Roche) and using TB Green Premix Ex Taq II (Takara Bio, catalog number: #RR820A). The cDNA of the primary human hepatocyte was diluted to create a calibration curve.
On the technique in general: Real-time PCR tracks product formation cycle by cycle.

The test system of series [4] is gluconeogenesis-related genes (FBP1, PCK1) in liver organoid. Nature of the series: Quantitative real-time PCR of liver organoids, gluconeogenesis medium composition changed. Conditions: 1 μM insulin in GM medium with 200 pg/mL glucagon and 400 ng/mL cortisol; FM 6 hours, GM 4 hours; donor 2. On the procedure: A GM medium obtained by removing glucagon and cortisol from the gluconeogenesis medium (GM medium) having the composition shown in Table 4, and further adding the components shown in Table 15 was prepared. Liver organoids were produced in the same manner as in Experimental Example 3, except that the incubation was performed for 6 hours after the addition of the FM medium and then the incubation was performed for 4 hours after the addition of the GM medium. In addition, the donor of the primary human hepatocyte used for the production of the liver organoid was a donor 2.
as §1, with “Subsequently, the expression of various genes in each of the produced liver organoids was analyzed by quantitative real-time PCR (qPCR). Specifically, a total” for “A total”

The mark [5] stands for this setting: factor included in differentiation medium at varied concentrations (Tables 9, 10).
Setting [6] is: factor included in gluconeogenesis medium (Tables 17, 18).

The results in this text go back to US20260185054A1, “METHOD FOR PRODUCING METABOLICALLY ACTIVATED LIVER ORGANOID, COMPOSITION, AND METHOD FOR EVALUATING TEST SUBSTANCE” (JSR CORPORATION, priority 2023, published 2026).

On to `CN(C)C(=N)N=C(N)N` [metformin, reference compound], for which the “gluconeogenesis in the liver organoid” value in the series on liver organoid [1] (metformin 1 mM or 10 mM added to MM, FM and GM medium, organoid cultured in DM medium) was “suppressed”. The “urea production in the liver organoid” value in the series with liver organoid [2] is recorded as “suppressed”.

Consider `Cc1cccc(-c2nn(C(=S)Nc3ccccc3)cc2-c2ccnc3ccccc23)n1` [A83-01], for which the “expression of the gluconeogenesis-related genes, the urea production-related genes, and the CYP genes” value in series [3] was “decreased”.

In the case of `C[C@]12CCC(=O)C=C1CC[C@@H]1[C@@H]2[C@@H](O)C[C@@]2(C)[C@H]1CC[C@]2(O)C(=O)CO` [cortisol, reference compound], the “gluconeogenesis of the liver organoid” value in the series on liver organoid [1] (setting [5]) is given as “improved in a manner dependent on the concentrations of added factors”; with liver organoid [1] (setting [6]), “improved”.

Regarding “growth hormone: hormone secreted from the anterior pituitary; growth hormone receptor agonist (PeproTech 100-40)”, the “gluconeogenesis of the liver organoid” value with liver organoid [1] (setting [5]) is given as “improved in a manner dependent on the concentrations of added factors”; with liver organoid [1] (setting [6]), “improved”.

Turning to “glucagon: hormone that increases blood glucose level through glycogenolysis and gluconeogenesis in the liver (Sigma G2044)”, in the series with liver organoid [1] (setting [6]), the “gluconeogenesis of the liver organoid” value is “improved”.

With “insulin: insulin added at 1 μM to the gluconeogenesis medium”, the “expression of the gluconeogenesis-related genes” value in series [4] is given as “suppresses”.

B1: prolactin: hormone from prolactin-secreting cells of the anterior pituitary; prolactin receptor agonist (PeproTech 100-07) (protein, UniProt P01236 29-227, looked up)
Prolactin: LPICPGGAARCQVTLRDLFDRAVVLSHYIHNLSSEMFSEFDKRYTHGRGFITKAINSCHTSSLATPEDKEQAQQMNQKDFLSLIVSILRSWNEPLYHLVTEVRGMQEAPEAILSKAVEIEEQTKRLLEGMELIVSQVHPETKENEIYPVWSGLPSLQMADEESRLSAYYNLLHCLRRDSHKIDNYLKLLKCRIIHNNNC
For the molecule B1, the “gluconeogenesis of the liver organoid” value in the series with liver organoid [1] (setting [5]) is reported as “improved in a manner dependent on the concentrations of added factors”; in the series with liver organoid [1] (setting [6]), “improved”.
